Assay results: ChEMBL document CHEMBL4130400, “Development of GLUT4-selective antagonists for multiple myeloma therapy” (Eur J Med Chem, 2017)
Activity calls are given as the source filed them. The rule behind the calls is not given here. Where a SMILES comes first, the peptide text is derived from it. The star is where a group is joined. Cbz = O=C(OCc1ccccc1)*

Legend:
[1] = biological target: T1, Solute carrier family 2, facilitated glucose transporter member 1 (Homo sapiens, UniProt P11166); assay: Antagonist activity at human GLUT1 expressed in HEK293 cells transfected with GLUT1 shRNA assessed as inhibition of [3H]2-deoxy-D-glucose uptake preincubated for 5 mins followed by [3H]2-deoxy-D-glucose addition and measured after 6 mins; assay type: cell-based
T1 sequence (P11166 whole entry): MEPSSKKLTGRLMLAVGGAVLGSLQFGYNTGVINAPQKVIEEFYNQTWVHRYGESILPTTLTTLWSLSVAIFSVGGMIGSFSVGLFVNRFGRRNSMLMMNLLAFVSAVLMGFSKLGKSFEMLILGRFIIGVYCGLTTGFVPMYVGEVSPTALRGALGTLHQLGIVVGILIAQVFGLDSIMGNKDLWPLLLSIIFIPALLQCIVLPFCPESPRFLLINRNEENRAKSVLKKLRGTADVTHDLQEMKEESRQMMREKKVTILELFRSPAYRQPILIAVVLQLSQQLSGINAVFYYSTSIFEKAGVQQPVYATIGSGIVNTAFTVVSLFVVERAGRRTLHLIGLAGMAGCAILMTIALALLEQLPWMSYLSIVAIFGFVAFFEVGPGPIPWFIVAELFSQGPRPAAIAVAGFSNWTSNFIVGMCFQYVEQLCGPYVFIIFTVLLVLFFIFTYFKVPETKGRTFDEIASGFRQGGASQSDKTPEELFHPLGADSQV

[2] = biological target: T2, Solute carrier family 2, facilitated glucose transporter member 4 (Homo sapiens, UniProt P14672); assay: Antagonist activity at human GLUT4 expressed in HEK293 cells transfected with GLUT1 shRNA assessed as inhibition of [3H]2-deoxy-D-glucose uptake preincubated for 5 mins followed by [3H]2-deoxy-D-glucose addition and measured after 6 mins; assay type: cell-based
T2 sequence (P14672 whole entry): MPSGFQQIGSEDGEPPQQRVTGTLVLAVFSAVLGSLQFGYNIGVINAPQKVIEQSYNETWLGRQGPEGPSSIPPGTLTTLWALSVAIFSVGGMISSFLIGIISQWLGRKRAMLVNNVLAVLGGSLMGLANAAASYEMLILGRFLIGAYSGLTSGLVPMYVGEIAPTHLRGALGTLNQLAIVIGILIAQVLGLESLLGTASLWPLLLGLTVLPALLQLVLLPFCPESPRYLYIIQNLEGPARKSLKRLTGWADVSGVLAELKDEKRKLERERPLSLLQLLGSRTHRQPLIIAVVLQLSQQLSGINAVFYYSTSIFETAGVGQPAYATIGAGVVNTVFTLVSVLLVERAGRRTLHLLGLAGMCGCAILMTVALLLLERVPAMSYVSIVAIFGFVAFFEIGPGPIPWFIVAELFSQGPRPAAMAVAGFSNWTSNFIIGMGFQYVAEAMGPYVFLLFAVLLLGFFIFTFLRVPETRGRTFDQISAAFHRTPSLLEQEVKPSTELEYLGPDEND

[3] = biological target: T3, Solute carrier family 2, facilitated glucose transporter member 8 (Homo sapiens, UniProt Q9NY64); assay: Antagonist activity at human GLUT8 expressed in HEK293 cells transfected with GLUT1 shRNA assessed as inhibition of [3H]2-deoxy-D-glucose uptake preincubated for 5 mins followed by [3H]2-deoxy-D-glucose addition and measured after 6 mins; assay type: cell-based
T3 sequence (Q9NY64 whole entry): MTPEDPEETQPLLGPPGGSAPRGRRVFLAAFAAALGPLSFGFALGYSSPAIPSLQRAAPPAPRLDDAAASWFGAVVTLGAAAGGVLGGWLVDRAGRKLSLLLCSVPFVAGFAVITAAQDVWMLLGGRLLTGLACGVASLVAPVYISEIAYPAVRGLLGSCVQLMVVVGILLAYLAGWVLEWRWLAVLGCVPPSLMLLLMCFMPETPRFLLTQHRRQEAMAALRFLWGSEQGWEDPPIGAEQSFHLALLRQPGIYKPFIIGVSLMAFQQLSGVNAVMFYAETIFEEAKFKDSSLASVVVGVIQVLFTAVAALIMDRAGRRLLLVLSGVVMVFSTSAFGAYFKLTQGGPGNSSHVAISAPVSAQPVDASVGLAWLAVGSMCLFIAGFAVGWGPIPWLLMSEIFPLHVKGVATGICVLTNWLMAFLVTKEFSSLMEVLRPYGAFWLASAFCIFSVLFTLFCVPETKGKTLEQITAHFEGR

[4] = biological target: T4, Solute carrier family 2, facilitated glucose transporter member 1 (Rattus norvegicus) (UniProt P11167); assay: Displacement of ATB-BMPA from rat C-terminal 6His/Myc-tagged GLUT1 expressed in HEK293 cell low density microsome at 20 uM preincubated for 10 mins followed by ATB-BMPA addition measured after 10 mins; assay type: cell-based
T4 sequence (whole entry): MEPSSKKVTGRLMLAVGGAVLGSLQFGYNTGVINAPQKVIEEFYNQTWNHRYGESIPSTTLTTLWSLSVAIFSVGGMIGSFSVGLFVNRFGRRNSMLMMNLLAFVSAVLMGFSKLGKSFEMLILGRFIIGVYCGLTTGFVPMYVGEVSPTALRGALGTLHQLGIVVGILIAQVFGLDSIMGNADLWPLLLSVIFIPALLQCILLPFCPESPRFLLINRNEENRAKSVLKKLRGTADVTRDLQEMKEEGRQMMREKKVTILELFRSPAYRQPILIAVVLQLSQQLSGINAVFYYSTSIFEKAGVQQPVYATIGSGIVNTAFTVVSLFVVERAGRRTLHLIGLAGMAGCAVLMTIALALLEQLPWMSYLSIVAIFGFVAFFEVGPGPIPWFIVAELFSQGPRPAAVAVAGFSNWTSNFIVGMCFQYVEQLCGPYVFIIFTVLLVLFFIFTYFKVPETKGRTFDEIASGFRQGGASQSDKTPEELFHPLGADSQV

[5] = biological target: T5, Solute carrier family 2, facilitated glucose transporter member 4 (Rattus norvegicus) (UniProt P19357); assay: Displacement of ATB-BMPA from rat C-terminal 6His/Myc-tagged GLUT4 expressed in HEK293 cell low density microsome at 20 uM preincubated for 10 mins followed by ATB-BMPA addition measured after 10 mins; assay type: cell-based
T5 sequence (whole entry): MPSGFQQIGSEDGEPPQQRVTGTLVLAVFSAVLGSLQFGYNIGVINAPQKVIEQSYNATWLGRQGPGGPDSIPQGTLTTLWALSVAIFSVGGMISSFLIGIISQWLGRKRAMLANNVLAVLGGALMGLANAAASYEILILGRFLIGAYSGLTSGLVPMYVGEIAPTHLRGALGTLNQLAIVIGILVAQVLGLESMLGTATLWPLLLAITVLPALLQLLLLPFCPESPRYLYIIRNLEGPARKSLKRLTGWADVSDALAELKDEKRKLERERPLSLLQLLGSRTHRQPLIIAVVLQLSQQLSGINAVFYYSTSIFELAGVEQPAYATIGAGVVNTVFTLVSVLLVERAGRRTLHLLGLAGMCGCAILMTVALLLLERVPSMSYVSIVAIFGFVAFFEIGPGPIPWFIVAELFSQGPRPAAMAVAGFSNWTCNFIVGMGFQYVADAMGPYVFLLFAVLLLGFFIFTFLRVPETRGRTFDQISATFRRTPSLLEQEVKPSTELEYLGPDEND

[6] = biological target: T6, Solute carrier family 2, facilitated glucose transporter member 4 (Rattus norvegicus, UniProt P19357); assay: Antagonist activity at GLUT4 in rat adipocytes assessed as reduction in insulin-stimulated [3H]2-deoxyglucose uptake preincubated for 1 min followed by [3H]2-deoxyglucose addition measured after 1 min by liquid scintillation counting analysis; assay type: cell-based
T6 sequence (P19357 whole entry): T5 sequence (whole entry)

[7] = test system: KMS-11; assay: Antiproliferative activity against human KMS11 cells over-expressing GFP after 72 hrs by CellTiter-Glo assay; assay type: functional, cell-based; conditions: KMS-11, 72 h

SMILES | IC50 [7] | other results
COc1ccc(C(=O)N(Cc2ccncc2)Cc2cccc(OCCc3ccc(F)cc3)c2)cc1 |  | IC50 [1]: > 100 µM; IC50 [2]: 1.7 µM; IC50 [3]: 6 µM; Activity [4]: Active; Activity [5]: Active
CCOC(=O)[C@H](Cc1ccccc1)NC(=O)[C@H](Cc1ccccc1)NC(=O)[C@H](Cc1cnc[nH]1)NC(=O)OCc1ccccc1 (Cbz-His-Phe-Phe-OEt) |  | Ki [6]: 26 µM
COc1ccc(C(=O)N(Cc2ccncc2)Cc2cccc(OCCc3cccc(C(F)(F)F)c3)c2)cc1 | 8.9 µM | 
COc1ccc(C(=O)N(Cc2ccncc2)Cc2cccc(OCc3ccc(C(F)(F)F)cc3)c2)cc1 | 14.3 µM | 
COc1ccc(C(=O)N(Cc2ccncc2)Cc2cccc(OCC(=O)c3ccc(Cl)cc3)c2)cc1 | 18.5 µM | 
COc1ccc(C(=O)N(Cc2ccncc2)Cc2cccc(OCCc3ccc(C)cc3)c2)cc1 | 9.1 µM | 
COc1ccc(C(=O)N(Cc2ccncc2)Cc2cccc(OCc3cccc(OC)c3)c2)cc1 | 16.9 µM | IC50 [2]: 11 µM
COc1ccc(C(=O)N(Cc2ccncc2)Cc2cccc(OCCc3ccc(Br)cc3)c2)cc1 | 8.4 µM | 
COc1ccc(C(=O)N(Cc2ccncc2)Cc2cccc(OCCc3ccccc3)c2)cc1 | 16.9 µM | 
COc1ccc(C(=O)N(Cc2ccncc2)Cc2cccc(OCc3ccc([N+](=O)[O-])cc3)c2)cc1 | 15.4 µM | 
